Experiments:
Assay in all cases: normalised response (% of control), CellTiter-Glo; higher = more viable cells (100 = DMSO, 0 = benzethonium chloride kill control)
Settings in all cases: incubation time: 72 h
[1] = test system: MFM-223
In short: (§1)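 Each value is the plate-normalised signal at one concentration of the series. Breast cancer cell lines (20 µl suspension) were incubated 72 h in 384-well plates with compound at 5 concentrations in 10-fold steps over a compound-specific 10,000-fold range. CellTox Green and then CellTiter-Glo were read, and each plate was scaled to 0.1 % DMSO (100) and a positive kill control (0).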

[2] = test system: CAL-148
In short: as §1

[3] = test system: CAL-85-1
In short: as §1

[4] = test system: DU-4475
In short: as §1

[5] = test system: CAL-120
In short: as §1

[6] = test system: SK-BR-3
In short: as §1

[7] = test system: HCC1143
In short: as §1

[8] = test system: MDA-MB-468
In short: as §1

[9] = test system: MDA-MB-453
In short: as §1

[10] = test system: BT-474
In short: as §1

[11] = test system: Hs578T
In short: as §1

[12] = test system: HCC1937
In short: as §1

[13] = test system: MDA-MB-231
In short: as §1

[14] = test system: CAL-51
In short: as §1

[15] = test system: MDA-MB-436
In short: as §1

[16] = test system: MCF-10A
In short: as §1

[17] = test system: BT-549
In short: as §1

[18] = test system: HCC1599
In short: as §1

[19] = test system: HDQ-P1
In short: as §1

Row | SMILES | normalised response [1] | normalised response [2] | normalised response [3] | normalised response [4] | normalised response [5] | normalised response [6] | normalised response [7] | normalised response [8] | normalised response [9] | normalised response [10] | normalised response [11] | normalised response [12] | normalised response [13] | normalised response [14] | normalised response [15] | normalised response [16] | normalised response [17] | normalised response [18] | normalised response [19]
1 | CC(=O)N(O)CCCCCNC(=O)CCC(=O)N(O)CCCCCNC(=O)CCC(=O)N(O)CCCCCN [Deferoxamine] (1 nM) | 94.7% | 91.9% | 93.2% | 95.6% | 106% | 94.8% | 95.1% | 91% | 94.8% | 94.6% | 100% | 93.7% | 91.8% | 108% | 101% | 99.2% | 104% | 120% | 105%
2 | Cc1ccc([N+](=O)[O-])cc1S(=O)(=O)N(C)/N=C/c1cnc2ccc(Br)cn12 [PIK-75] (1 nM) | 92.2% | 96.4% | 92.2% | 95.6% | 92.4% | 99.6% | 93.8% | 94.9% | 100% | 89.6% | 97.9% | 94.7% | 92.9% | 73.8% | 88.9% | 95% | 99% | 108% | 98.8%
3 | COc1cc(F)c(F)c(Nc2ccc(I)cc2F)c1NS(=O)(=O)C1(C[C@H](O)CO)CC1 [Refametinib] (1 nM) | 94.4% | 101% | 97% | 104% | 101% | 91.2% | 93.6% | 92.7% | 87.9% | 91.2% | 92.9% | 93.6% | 100% | 75.2% | 91.6% | 79.4% | 98.6% | 99.5% | 92.8%
4 | CC1=C2C[C@H]3[C@@H](CC=C4C[C@@H](O)CC[C@@]43C)[C@@H]2CC[C@]12O[C@@H]1C[C@H](C)CN[C@H]1[C@H]2C [Cyclopamine] (10 nM) | 113% | 117% | 98% | 109% | 102% | 120% | 105% | 110% | 109% | 104% | 105% | 104% | 105% | 110% | 105% | 114% | 95.6% | 116% | 105%
5 | CC1(C)CNc2cc(NC(=O)c3cccnc3NCc3ccncc3)ccc21 [Motesanib] (10 nM) | 93.7% | 87.4% | 92.9% | 99.4% | 97.9% | 76.2% | 98.2% | 96.8% | 106% | 105% | 98.3% | 99.6% | 91.2% | 123% | 99.4% | 93.9% | 95.3% | 101% | 93.9%
6 | C[C@]1(O)C[C@@H](c2nc(-c3ccc4ccc(-c5ccccc5)nc4c3)c3c(N)nccn32)C1 [Linsitinib] (1 nM) | 87.5% | 98% | 92.8% | 98% | 97.7% | 91.5% | 91.7% | 93.9% | 90.9% | 98.2% | 93.2% | 91.5% | 95.3% | 109% | 96.4% | 89.5% | 92.6% | 106% | 105%
7 | C[C@]1(O)C[C@@H](c2nc(-c3ccc4ccc(-c5ccccc5)nc4c3)c3c(N)nccn32)C1 [Linsitinib] (10 nM) | 92.8% | 85.6% | 95% | 94.9% | 102% | 76.1% | 96.1% | 90.8% | 99.3% | 93.7% | 96.1% | 101% | 94.8% | 92.4% | 89.2% | 88.9% | 94.4% | 78.5% | 99%
8 | C[C@]12CC[C@@H]3c4ccc(OC(=O)N(CCCl)CCCl)cc4CC[C@H]3[C@@H]1CC[C@@H]2O [Estramustine] (10 nM) | 87.7% | 84.1% | 91.2% | 91.3% | 103% | 94.9% | 98.5% | 97.6% | 88.8% | 97% | 97% | 96% | 95.1% | 90.1% | 93.3% | 91.1% | 98.6% | 103% | 104%
9 | Cn1cc(C2=Nc3cc(NC(=O)C(N)C4CCCCC4)cc4c3C2=CNNC4=O)cn1 (stereo not drawn) (10 nM) | 90.4% | 87.3% | 93.3% | 95.3% | 90.9% | 77.2% | 90.4% | 90.6% | 91.7% | 94% | 94.3% | 96.2% | 91.2% | 134% | 89.4% | 84.6% | 95.2% | 93.4% | 91.7%
10 | Cc1sc2c(c1C)C(c1ccc(Cl)cc1)=N[C@@H](CC(=O)OC(C)(C)C)c1nnc(C)n1-2 [(+)JQ1] (10 nM) | 108% | 116% | 101% | 104% | 94.8% | – | 105% | 98.3% | 111% | 108% | 98.1% | 94.5% | 110% | 107% | 113% | 107% | 96.2% | 104% | 101%
11 | COc1cc(F)c(F)c(Nc2ccc(I)cc2F)c1NS(=O)(=O)C1(C[C@H](O)CO)CC1 [Refametinib] (10 nM) | 87.9% | 86.9% | 90.7% | 92% | 99.5% | 79.6% | 95.8% | 87.2% | 101% | 95.5% | 96.5% | 97.9% | 94.4% | 130% | 90.7% | 58.5% | 96.5% | 109% | 89.2%
12 | O=C1CN2Cc3c(ccc(Cl)c3Cl)N=C2N1 [Anagrelide] (10 nM) | 99.2% | 93.9% | 93.8% | 101% | 96.5% | 94.2% | 103% | 100% | 102% | 95.5% | 97.5% | 94.8% | 97% | 115% | 95.2% | 103% | 101% | 100% | 98.7%
13 | COc1cc2c(cc1O)CC[C@@H]1[C@@H]2CC[C@]2(C)[C@@H](O)CC[C@@H]12 [2-methoxyestradiol] (10 nM) | 96.5% | 91.3% | 103% | 101% | 101% | – | 103% | 98.2% | 96.4% | 97.8% | 96.8% | 98.1% | 97.7% | 97.5% | 106% | 94.6% | 94% | 92.7% | 101%
14 | Cn1cc(C2=Nc3cc(NC(=O)C(N)C4CCCCC4)cc4c3C2=CNNC4=O)cn1 (stereo not drawn) (1 nM) | 86.7% | 91.3% | 95.9% | 98.3% | 97.1% | 82.5% | 86.8% | 91.2% | 84.3% | 93.8% | 94% | 94.1% | 95% | 103% | 86.7% | 80% | 98.2% | 97.4% | 91.4%
15 | CC(C)(C)c1cnc(CSc2cnc(NC(=O)C3CCNCC3)s2)o1 [SNS-032] (10 nM) | 97.2% | 98.5% | 109% | 99.2% | 96.6% | 95.8% | 89.7% | 96.7% | 99.6% | 93.4% | 102% | 97.8% | 96.5% | 65.3% | 101% | 105% | 95.1% | 107% | 92.1%
16 | O=NN(CCCl)C(=O)NCCCl [Carmustine] (10 nM) | 102% | 93.3% | 95.6% | 101% | 98.9% | – | 105% | 102% | 114% | 93.8% | 105% | 101% | 91.9% | 128% | 98.4% | 96.6% | 100% | 97.9% | 94.8%
17 | Nc1ncn([C@@H]2O[C@H](CO)[C@@H](O)[C@H]2O)c(=O)n1 [Azacitidine] (10 nM) | 96.2% | 92% | 101% | 102% | 99.3% | 110% | 99.4% | 103% | 105% | 99.9% | 97.5% | 101% | 94.3% | 113% | 105% | 103% | 93.4% | 105% | 99.5%
18 | Cc1ccc([N+](=O)[O-])cc1S(=O)(=O)N(C)/N=C/c1cnc2ccc(Br)cn12 [PIK-75] (10 nM) | 92.7% | 90.3% | 89.3% | 97% | 86.8% | 74.4% | 90.2% | 82.2% | 79.2% | 83.5% | 91.5% | 90.3% | 88.9% | 79.1% | 99.1% | 108% | 101% | 96.9% | 95.5%
19 | CC1(C)CCC(CN2CCN(c3ccc(C(=O)NS(=O)(=O)c4ccc(NCC5CCOCC5)c([N+](=O)[O-])c4)c(Oc4cnc5[nH]ccc5c4)c3)CC2)=C(c2ccc(Cl)cc2)C1 [ABT-199] (1 nM) | 96.8% | 100% | 99.5% | 98.2% | 98.9% | 95.4% | 98.6% | 94.1% | 101% | 94.8% | 104% | 106% | 97.4% | 122% | 98.5% | 98.3% | 98.9% | 89.5% | 101%
20 | Nc1nc2[nH]cnc2c(=S)[nH]1 [Thioguanine] (10 nM) | 97.2% | 105% | 99.4% | 98.5% | 100% | – | 101% | 99.5% | 87.4% | 93.8% | 102% | 96.9% | 98.2% | 85.1% | 98.8% | 98.7% | – | 112% | 94.6%
21 | CC1(C)CCC(CN2CCN(c3ccc(C(=O)NS(=O)(=O)c4ccc(NCC5CCOCC5)c([N+](=O)[O-])c4)c(Oc4cnc5[nH]ccc5c4)c3)CC2)=C(c2ccc(Cl)cc2)C1 [ABT-199] (10 nM) | 100% | 103% | 106% | 96.2% | 91.8% | – | 99.2% | 118% | 97.5% | 97.3% | 103% | 99.7% | 97.2% | 68.3% | 102% | 101% | 95.7% | 104% | 97.1%

From the supplement of paper PMC4862054
